These results are taken from US8779004B2, “Stable emulsion formulations” (Amgen, Inc., priority 2006, dated 2014).

A short description of data set [1]: Solubility of calcimimetics in oil phases (RP-HPLC). It counts as physicochemical. The following applies: long-chain oil phases; for solubility at 18 h: oil or lipid, thermodynamic from solid. Here is the method: The solubility measurements of the compounds were prepared by the addition of 1 g of drug substance to two milliliters of oil into a Wheaton 5 mL vial. The headspace was sparged with nitrogen, and enclosed with a West 4405/50 gray Teflon coated stopper and manually sealed by an aluminum overseal. The preparations were repeated again with the oils containing either purified egg or soy lecithin. All labeled vials were shaken at room temperature for eighteen hours on a platform shaker. After eighteen hours, the samples were diluted in mobile phase, and analyzed by the RP-HPLC method. Table 2 summarizes solubility results (expressed in mg/mL) of cinacalcet in various oil phases.

Data set [2] in a line: Zeta potential titration of emulsions (droplet charge vs pH). It counts as physicochemical. To be noted: SBO 10%, Lecithin 2% at pH 7; 5 mg/mL (formulation #1) versus 1 mg/mL (formulation #2). The method, then: Panel A, titration results of 1% EYP/10% SBO in 1 mM dibasic phosphate. Panel B, titration results of cinacalcet/1% EYP/10% SBO in 1 mM dibasic phosphate. Other components of the emulsions include 10% soybean oil, 1% egg lecithin, 2.25% glycerin and water. Panel C, titration results for Compound A. Emulsion composition: SBO 10%, Lecithin 2% at pH 7. Concentration of Compound A was 5 mg/mL for formulation #1 and 1 mg/mL for formulation #2.
The zeta potential measurements were made on a Malvern Zetasizer 4 laser-scattering particle electrophoretic analyzer that measures the electrophoretic mobility and zeta potential distribution. Samples were prepared for the zeta potential titration by diluting the emulsion approximately 2500 fold in 1 mM dibasic phosphate pH 9 and titrating the solution with 100 mM phosphoric acid in 0.5 pH unit increments. […] Theoretically, the emulsions are stabilized by this charge, which prevents the droplets from coalescing. […] In contrast, the cinacalcet emulsions achieve charge neutrality in the range of pH 7-7.5.

Data set [3] in a line: Long-term storage stability of emulsions (assay, pH, particle size). In kind it is physicochemical. The following applies: Compound A emulsions; over 14 months at any of the storage conditions tested. Here is the method: Calcimimetics emulsions for long-term studies were prepared at 5 mg/mL drug concentration, 5% SBO, 2% egg lecithin, 2% glycerin, 20 mM TRIS buffer at pH 9. The emulsions were packed in glass vials at 20 mL each and stored inverted in stability chambers. At each time-point, 3 vials from each chamber were pulled and analyzed for the calcimimetic concentration, pH and particle size. […] The values for pH dropped over time, with greater magnitude of drop seen at higher temperature.

For another data set, the system named is rabbit ear vein. The experiment in a line: Acute local venous toxicity / irritation in the rabbit ear vein (REV). In kind it is in vivo. Also on record: Erythema / Edema: scale not given here. The source says: This Example illustrates the protective effect of the formulations of the invention as measured by irritation in the rabbit ear vein (REV). A typical protocol for evaluation of the local tolerance for formulations was as follows.
Dosing of animals. The rabbits used were male New Zealand rabbits weighing approximately 2.5 to 4 kg. The rabbits were acclimatized for a period of 10 days following receipt before the start of the study. The rabbits were randomized into groups based on the number of formulations to be studied. Typically 3 rabbits were used per group.
For each group of rabbits, the formulation containing the drug to be tested was dosed in the right marginal ear vein, with the corresponding placebo being dosed at the same time in the left marginal ear vein. The placebos were prepared such that they matched the formulation composition, and the technique of dosing for the drug formulations and the placebo formulations were kept the same. Typical dosing volumes ranged from 1 mL/kg to 5 mL/kg. The formulations were either dosed as (a) bolus injection wherein the entire dosing volume was administered within 5 minutes; (b) 30 minute infusion; or (c) a 2 hour infusion. The formulations were administered through appropriately sized syringes and catheters. The injection sites were marked with indelible ink for identification at each observation period. The rabbits were dosed based upon the Day 1 body weight.
Observation of animals. Each animal was observed cage side at least twice daily for mortality/morbundity. Each animal received a detailed clinical observation once prior to randomization, once prior to dosage administration and once daily thereafter.
Any abnormalities were recorded as they were observed. Observations for local irritation were scored according to the following scale
At each interval the area of irritation (if present) was also measured. The actual length and width in mm was recorded.
On day 3 the animals were euthanized and the tissues from the Pinna of the left and right ear, and any gross lesions (if present) of the ear or ear vein were collected. Histopathology was performed on the collected tissues. After fixation, the pinna was tripped into a total of 4 sections of 1 cm each; one of which included the deposition site (location of the end of the catheter in the ear) and one from approximately 1-, 2-, and 3-cm downstream from the deposition site. Each section included skin, cartilage, vein and other soft tissue. These tissues were then embedded in paraffin, sectioned and stained with hematoxylin and eosin, and examined via light microscopy.

Data set [4] can be described thus: Loss in drug strength due to adsorption to PVC tubing. It counts as physicochemical. Here is the method:
A solution of compound A was prepared in acetate mannitol buffer at pH 4. At this pH, the compound forms a clear solution of concentration 0.2 mg/mL. An equivalent emulsion was prepared at the same concentration with 5% soybean oil, 2% lecithin, 2% glycerin and 20 mM TRIS buffer at pH 9. PVC tubing was selected as an example of commonly used intravenous infusion set. 15 cm sections of this tube were filled with either the solution or emulsion formulation and clamped on both ends. These filled tubes were held at the ambient temperature for 1 hour. The formulations inside were collected and analyzed for drug content using reversed phase HPLC. […] Panel A: Compound A in acetate/mannitol solution, pre-exposure. Panel B: compound A in acetate/mannitol solution, after 1 hour of exposure to the PVC tubing. Panel C: compound A formulated in the emulsion of the invention, pre-exposure. Panel D: compound A formulated in the emulsion of the invention, pre-exposure, after 1 hour of exposure to the PVC tubing.

A further data set deals with cytochrome P450 2D6 (Homo sapiens, UniProt P10635). The following applies: stated as known; cited from earlier work.
Chain of cytochrome P450 2D6 (P10635 whole entry, the tested form may be a part): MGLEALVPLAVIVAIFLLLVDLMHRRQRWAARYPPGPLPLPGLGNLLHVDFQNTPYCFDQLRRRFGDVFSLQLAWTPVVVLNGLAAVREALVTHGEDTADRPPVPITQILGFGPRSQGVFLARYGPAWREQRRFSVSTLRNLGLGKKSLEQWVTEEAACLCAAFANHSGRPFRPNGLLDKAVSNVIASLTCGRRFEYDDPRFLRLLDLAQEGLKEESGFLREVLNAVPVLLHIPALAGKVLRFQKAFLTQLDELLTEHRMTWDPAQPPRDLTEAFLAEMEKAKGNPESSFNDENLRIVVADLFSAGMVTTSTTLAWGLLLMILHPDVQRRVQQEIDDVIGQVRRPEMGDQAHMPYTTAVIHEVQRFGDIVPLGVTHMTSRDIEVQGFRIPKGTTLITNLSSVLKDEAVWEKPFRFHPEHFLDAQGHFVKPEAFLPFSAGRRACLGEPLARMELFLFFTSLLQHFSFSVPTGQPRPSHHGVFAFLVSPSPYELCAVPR
The mark [5] stands for this setting: emulsion with TRIS buffer 20 mM, pH 9, 2-hour infusion, 2 mg/kg (conc. 5 mg/mL), 0 h.
The mark [6] stands for this setting: emulsion with TRIS buffer 20 mM, pH 9, 2-hour infusion, 2 mg/kg (conc. 5 mg/mL), 48 h.
The mark [7] stands for this setting: emulsion with TRIS buffer 20 mM, pH 9, 2-hour infusion, 6 mg/kg (conc. 5 mg/mL), 0 h.
The mark [8] stands for this setting: emulsion with TRIS buffer 20 mM, pH 9, 2-hour infusion, 6 mg/kg (conc. 5 mg/mL), 48 h.
Where [9] appears, read: solution in acetate mannitol buffer, pH 4, 2 hour infusion, 1 mg/kg (conc. 0.1 mg/mL), 0 h.
[10] abbreviates: solution in acetate mannitol buffer, pH 4, 2 hour infusion, 1 mg/kg (conc. 0.1 mg/mL), 48 h.

In brackets after ≈: the same amount, converted by molar mass.

In general, solubility refers to the concentration that dissolves in the medium under given conditions. On to `COc1ccc(CN[C@H](C)c2ccccc2)cc1-c1ccc(C(F)(F)F)cc1` [Compound A, (1R)—N-((6-(methyloxy)-4′-(trifluoromethyl)-1,1′-biphenyl-3-yl)methyl)-1-phenylethanamine], for which the solubility at 18 h in data set [1] is over 300 mg/mL. Besides, in data set [2], the “pH at which emulsion reaches neutral charge” value was “reaches neutral charge at a higher pH”. For the same compound, the “change in particle size” value in data set [3] is “No change”. The local venous toxicity result with rabbit ear vein (dosed as a solution) is “evidence of local venous toxicity”. Further, in the data set on rabbit ear vein (emulsion containing Compound A), the “effect on the vasculature” value is given as “protective effect on the vasculature”. Further, the Edema in the data set with rabbit ear vein (setting [5]), in the data set on rabbit ear vein (setting [6]), in the data set with rabbit ear vein (setting [7]), in the data set on rabbit ear vein (setting [8]), in the data set on rabbit ear vein (setting [9]) and in the data set with rabbit ear vein (setting [10]) was 0.0 ± 0.0 in each case. In addition, the Erythema worked out at 0.0 ± 0.0 in the data set on rabbit ear vein (setting [5]); 0.0 ± 0.0 in the data set on rabbit ear vein (setting [6]); 0.0 ± 0.0 in the data set with rabbit ear vein (setting [7]); 0.0 ± 0.0 in the data set on rabbit ear vein (setting [8]); 0.0 ± 0.0 in the data set with rabbit ear vein (setting [9]); 1.3 ± 2.3 in the data set on rabbit ear vein (setting [10]). Moreover, the “Histopathology: severity and incidence of edema, hemorrhage and subacute inflammation” value with rabbit ear vein (emulsion with TRIS buffer 20 mM, pH 9, 2-hour infusion, 2 and 6 mg/kg, compared to the solution) is given as “much lower in all thee animals as compared”; with rabbit ear vein (solution in acetate mannitol buffer, pH 4, 2 hour infusion, 1 mg/kg, compared to placebo), “higher in the ears treated with Compound A”. In addition, the “difference in concentration of drug before or after exposure to tubing” value in data set [4] (0.2 mg/mL emulsion (5% soybean oil, 2% lecithin, 2% glycerin, 20 mM TRIS, pH 9), 1 hour) is listed as “no significant difference”. In addition, in data set [4] (0.2 mg/mL solution in acetate mannitol buffer at pH 4, ambient temperature), the “drug concentration after 1 hour holding in the tubing” value was “about 50 % of initial concentration”.
On to `CCn1cc(-c2cccc(C(F)(F)F)c2)c2cc(CN[C@H](C)c3ccccc3)ccc21` [Compound F, (1R)—N-((1-ethyl-3-(3-(trifluoromethyl)phenyl)-1H-indol-5-yl)methyl)-1-phenylethanamine], for which the solubility at 18 h in data set [1] is over 300 mg/mL.
What is called Solubility is the dissolved amount per volume that the medium holds. On to `COc1ccc([C@@H](C)N[C@H](C)c2ccccc2)cc1-c1ccc(C(F)(F)F)cc1` [Compound G], for which the Solubility in data set [1] is over 50 mg/mL.
In the case of `COc1ccc(CN[C@H](C)c2cccc(Cl)c2)cc1-c1ccc(C(F)(F)F)cc1` [Compound E, (1R)-1-(3-chlorophenyl)-N-((6-(methyloxy)-4′-(trifluoromethyl)-1,1′-biphenyl-3-yl)methyl)ethanamine], the solubility at 18 h in data set [1] is over 300 mg/mL.
As for `COc1ccc(CN[C@H](C)c2cccc3ccccc23)cc1-c1ccc(OC(F)(F)F)cc1` [Compound B, (1R)—N-((6-(methyloxy)-4′-((trifluoromethyl)oxy)-1,1′-biphenyl-3-yl)methyl)-1-(1-naphthalenyl)ethanamine], in data set [1], the solubility at 18 h turned out to be 50 mg/mL (≈ 111 mM).
Same read-out and setting: next, `COc1ccc(CN[C@H](C)c2ccccc2)cc1-c1ccc(OC(F)(F)F)cc1` [Compound C, (1R)—N-((6-(methyloxy)-4′-((trifluoromethyl)oxy)-1,1′-biphenyl-3-yl)methyl)-1-phenylethanamine]: over 300 mg/mL.
`C[C@@H](NCc1ccc(Cl)c(-c2ccc(OC(F)(F)F)cc2)c1)c1cccc2ccccc12` [Compound H, (1R)—N-((6-chloro-4′-((trifluoromethyl)oxy)-3-biphenyl)methyl)-1-(1-naphthalenyl)ethanolamine]: in data set [1], the Solubility is over 50 mg/mL.
For the compound `COc1ccc(CN[C@H](C)c2cccc(F)c2)cc1-c1ccc(C(F)(F)F)cc1` [Compound D, (1R)-1-(3-fluorophenyl)-N-((6-(methyloxy)-4′-(trifluoromethyl)-1,1′-biphenyl-3-yl)methyl)ethanamine], in data set [1], the solubility at 18 h is over 300 mg/mL.
As for `C[C@@H](NCCCc1cccc(C(F)(F)F)c1)c1cccc2ccccc12` [Sensipar], the metabolism result at cytochrome P450 2D6 is recorded as “metabolized by cytochrome P450 2D6”.
